Assays:
KRas^G12D = target: T1, KRas^G12D (Homo sapiens, UniProt P01116, G12D); test: KRas binding assay (TR-FRET tracer displacement), KRas G12D
T1 construct: Biotinylated KRas (corresponding to amino acids 1-169, produced at Accelegan Inc.); biotin (biotinylated); purchased Accelegan Inc

KRas^G12R = target: T2, KRas^G12R (Homo sapiens, UniProt P01116, G12R); test: KRas binding assay (TR-FRET tracer displacement), KRas G12R
T2 construct: Biotinylated KRas (corresponding to amino acids 1-169, produced at Accelegan Inc.); biotin (biotinylated); purchased Accelegan Inc

KRas^G12V = target: T3, KRas^G12V (Homo sapiens, UniProt P01116, G12V); test: KRas binding assay (TR-FRET tracer displacement), KRas G12V
T3 construct: Biotinylated KRas (corresponding to amino acids 1-169, produced at Accelegan Inc.); biotin (biotinylated); purchased Accelegan Inc

[1] = tested on: KRas-mediated phosphorylation of ERK in MKN1 cells; test: Inhibition of KRas-mediated phosphorylation of ERK (Cisbio HTRF pERK), MKN1 cells; assay type: cell-based; conditions: Homo sapiens, MKN-1
In short: (§1)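 Day 1 seeding: 6,000 cells per well, RPMI/10% FBS, left overnight at 37° C. with 5% CO2. Plates then stood covered for 4 h at room temperature prior to HTRF detection of pERK.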

[2] = tested on: KRas-mediated phosphorylation of ERK in PSN1 cells; test: Inhibition of KRas-mediated phosphorylation of ERK (Cisbio HTRF pERK), PSN1 cells; assay type: cell-based; conditions: Homo sapiens
In short: as §1

[3] = tested on: KRas-mediated phosphorylation of ERK in AsPC-1 cells; test: Inhibition of KRas-mediated phosphorylation of ERK (Cisbio HTRF pERK), AsPC-1 cells; assay type: cell-based; conditions: Homo sapiens; for IC50: ASPC1, AsPC-1 cells, HTRF pERK; for inhibition at 0.1 µM: ASPC1, 3 h, single point, 100 nM compound, 3 hrs, AsPC-1 cells
In short: (§2)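 H358, H727, H460 and AsPC-1 cells seeded at 6,000/well, treated 3 hrs with 10-dose 3-fold dilutions from 10 uM (0.8% DMSO); 0.2 uM trametinib as min control. Lysed 40 min at 4° C; lysate incubated 2 hrs at room temperature with d2/cryptate antibodies, HTRF read.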

[4] = tested on: KRas-mediated phosphorylation of ERK in H727 cells; test: Inhibition of KRas-mediated phosphorylation of ERK (Cisbio HTRF pERK), H727 cells; assay type: cell-based; conditions: Homo sapiens; for IC50: NCI-H727, H727 cells, HTRF pERK; for inhibition at 0.1 µM: NCI-H727, 3 h, single point, 100 nM compound, 3 hrs, H727 cells
In short: as §2

[5] = tested on: KRas-mediated phosphorylation of ERK in A549 cells; test: Inhibition of KRas-mediated phosphorylation of ERK (Cisbio HTRF pERK), A549 cells; assay type: cell-based; conditions: Homo sapiens; for IC50: HTRF pERK; for inhibition at 0.1 µM: A549, 3 h, single point, 100 nM compound, 3 hrs
In short: (§3)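 HTRF readout of phospho-ERK in cell lysates after 3 hrs of compound exposure. Dosing: 10 uM top, 3-fold steps, 10 doses, final DMSO 0.8%. Min control: 0.2 uM Trametinib. Lysis ran 40 mins at 4° C, and antibody detection 2 hrs at room temperature.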

[6] = tested on: KRas-mediated phosphorylation of ERK in H460 cells; test: Inhibition of KRas-mediated phosphorylation of ERK (Cisbio HTRF pERK), H460 cells; assay type: cell-based; conditions: Homo sapiens; for IC50: NCI-H460, HTRF pERK; for inhibition at 0.1 µM: NCI-H460, 3 h, single point, 100 nM compound, 3 hrs
In short: as §2

[7] = tested on: KRas-mediated phosphorylation of ERK in HCT116 cells; test: Inhibition of KRas-mediated phosphorylation of ERK (Cisbio HTRF pERK), HCT116 cells; assay type: cell-based; conditions: Homo sapiens; for IC50: HCT-116, HTRF pERK; for inhibition at 0.1 µM: HCT-116, 3 h, single point, 100 nM compound, 3 hrs
In short: as §3

[8] = tested on: KRas-mediated phosphorylation of ERK in H358 cells; test: Inhibition of KRas-mediated phosphorylation of ERK (Cisbio HTRF pERK), H358 cells; assay type: cell-based; conditions: Homo sapiens; for IC50: NCI-H358, HTRF pERK; for inhibition at 0.1 µM: NCI-H358, 3 h, single point, 100 nM compound, 3 hrs
In short: as §2

T3 sequence (P01116 1-169 isoform P01116-2 G12V): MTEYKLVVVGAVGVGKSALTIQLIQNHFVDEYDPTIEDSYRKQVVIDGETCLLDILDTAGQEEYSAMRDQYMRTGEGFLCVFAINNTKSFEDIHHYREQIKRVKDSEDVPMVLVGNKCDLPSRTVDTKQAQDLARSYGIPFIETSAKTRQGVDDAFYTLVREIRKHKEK
T1 sequence (P01116 1-169 isoform P01116-2 G12D): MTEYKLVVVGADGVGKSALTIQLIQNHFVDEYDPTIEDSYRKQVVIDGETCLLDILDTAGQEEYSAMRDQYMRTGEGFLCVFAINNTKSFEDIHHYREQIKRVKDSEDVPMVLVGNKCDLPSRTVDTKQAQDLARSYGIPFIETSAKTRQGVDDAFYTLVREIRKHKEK
T2 sequence (P01116 1-169 isoform P01116-2 G12R): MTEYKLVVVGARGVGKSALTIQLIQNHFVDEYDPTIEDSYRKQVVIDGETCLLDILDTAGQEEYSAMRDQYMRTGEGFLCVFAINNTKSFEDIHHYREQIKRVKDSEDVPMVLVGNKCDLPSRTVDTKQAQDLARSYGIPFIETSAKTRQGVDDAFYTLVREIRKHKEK

| SMILES | IC50 (KRas^G12D) | IC50 (KRas^G12R) | IC50 (KRas^G12V) | IC50 [1] | IC50 [2] | IC50 [3] | IC50 [4] | IC50 [5] | IC50 [6] | IC50 [7] | IC50 [8] | inhibition at 0.1 µM [3] | inhibition at 0.1 µM [4] | inhibition at 0.1 µM [5] | inhibition at 0.1 µM [6] | inhibition at 0.1 µM [7] | inhibition at 0.1 µM [8] |
| --- | --- | --- | --- | --- | --- | --- | --- | --- | --- | --- | --- | --- | --- | --- | --- | --- | --- |
| O=C1CC2(CCCN(c3nc(OC[C@@]45CCCN4C[C@H](F)C5)nc4c(F)c(-c5cc(O)cc6ccc(F)c(Cl)c56)ncc34)C2)C(=O)N1 (stereo partly drawn) [Example 774, 7-(7-(8-chloro-7-fluoro-3-hydroxynaphthalen-1-yl)-8-fluoro-2-(((2R,7aS)-2-fluorohexahydro-1H-pyrrolizin-7a-yl)methoxy)pyrido[4,3-d]pyrimidin-4-yl)-2,7-diazaspiro[4.5]decane-1,3-dione] | 2 nM | < 2 nM | < 2 nM | 123 nM | 2340 nM | 852 nM | 138 nM | 924 nM | 434 nM | 506 nM | 121 nM |  |  |  |  |  |  |
| C[C@@H]1C[C@@H]1c1c(Cl)cc(O)cc1-c1ncc2c(N3CCC[C@@](C)(O)C3)nc(OC[C@@]34CCCN3C[C@H](F)C4)nc2c1F [Example 805, (R)-1-(7-(3-chloro-5-hydroxy-2-((1S,2R)-2-methylcyclopropyl)phenyl)-8-fluoro-2-(((2R,7aS)-2-fluorotetrahydro-1H-pyrrolizin-7a(5H)-yl)methoxy)pyrido[4,3-d]pyrimidin-4-yl)-3-methylpiperidin-3-ol] | < 2 nM | 3 nM | < 2 nM | 1 nM | 812 nM | 13 nM | 29 nM | 23 nM | 10 nM | 24 nM | 8 nM |  |  |  |  |  |  |
| CCc1c(F)ccc2cc(O)cc(-c3ncc4c(N5CC6CCC(CO)(C6)C5)nc(OC[C@@]56CCCN5C[C@H](F)C6)nc4c3F)c12 (stereo partly drawn) [Example 812, 5-ethyl-6-fluoro-4-(8-fluoro-2-(((2R,7aS)-2-fluorotetrahydro-1H-pyrrolizin-7a(5H)-yl)methoxy)-4-(1-(hydroxymethyl)-3-azabicyclo[3.2.1]octan-3-yl)pyrido[4,3-d]pyrimidin-7-yl)naphthalen-2-ol] | 12 nM | 6 nM | 4 nM | 68 nM | > 10000 nM | 743 nM | 363 nM | 922 nM | 166 nM | 324 nM | 177 nM |  |  |  |  |  |  |
| CCc1c(F)ccc2cc(O)cc(-c3ncc4c(N5CC6CCC(C(=O)N(C)C)(C6)C5)nc(OC[C@@]56CCCN5C[C@H](F)C6)nc4c3F)c12 (stereo partly drawn) [Example 824, 3-(7-(8-ethyl-7-fluoro-3-hydroxynaphthalen-1-yl)-8-fluoro-2-(((2R,7aS)-2-fluorotetrahydro-1H-pyrrolizin-7a(5H)-yl)methoxy)pyrido[4,3-d]pyrimidin-4-yl)-N,N-dimethyl-3-azabicyclo[3.2.1]octane-1-carboxamide] | 11 nM | 8 nM | 4 nM | 167 nM | > 10000 nM | 165 nM | 174 nM | 143 nM | 136 nM | 502 nM | 69 nM |  |  |  |  |  |  |
| CCc1c(F)ccc2cc3[nH]ncc3c(-c3ncc4c(N5C[C@@H]6C[C@H](C5)[C@H](O)C6)nc(OC[C@@]56CCCN5C[C@H](F)C6)nc4c3F)c12 [Example 825, (1R,5R,6R)-3-(7-(5-ethyl-6-fluoro-1H-benzo[f]indazol-4-yl)-8-fluoro-2-(((2R,7aS)-2-fluorotetrahydro-1H-pyrrolizin-7a(5H)-yl)methoxy)pyrido[4,3-d]pyrimidin-4-yl)-3-azabicyclo[3.2.1]octan-6-ol] | 6 nM | 3 nM | < 2 nM | 36 nM | 5920 nM | 180 nM | 56 nM | 83 nM | 98 nM | 369 nM | 50 nM |  |  |  |  |  |  |

Second part, led by results:

| IC50 (KRas^G12D) | IC50 (KRas^G12R) | IC50 (KRas^G12V) | IC50 [1] | IC50 [2] | IC50 [3] | IC50 [4] | IC50 [5] | IC50 [6] | IC50 [7] | IC50 [8] | SMILES | inhibition at 0.1 µM [3] | inhibition at 0.1 µM [4] | inhibition at 0.1 µM [5] | inhibition at 0.1 µM [6] | inhibition at 0.1 µM [7] | inhibition at 0.1 µM [8] |
| --- | --- | --- | --- | --- | --- | --- | --- | --- | --- | --- | --- | --- | --- | --- | --- | --- | --- |
| 2 nM | 5 nM | 2 nM | 19 nM | 9780 nM | 52 nM | 187 nM |  |  |  |  | CCc1c(F)ccc2cc(O)cc(-c3ncc4c(N5CCC[C@@](C)(O)C5)nc(OCC5(CN(C)C)CC56CC6)nc4c3F)c12 (stereo partly drawn) [Example 783, (3R)-1-(2-((1-((dimethylamino)methyl)spiro[2.2]pentan-1-yl)methoxy)-7-(8-ethyl-7-fluoro-3-hydroxynaphthalen-1-yl)-8-fluoropyrido[4,3-d]pyrimidin-4-yl)-3-methylpiperidin-3-ol] | 47% | 12% | 34% | 47% | 31% | 62% |
| 2 nM | 4 nM | < 2 nM | 13 nM | 2840 nM | 73 nM | 211 nM |  |  |  |  | CCc1c(F)ccc2cc(O)cc(-c3ncc4c(N5CCC[C@@](C)(O)C5)nc(OC[C@@]56CCCN5[C@@H](CNS(=O)(=O)N(C)C)CC6)nc4c3F)c12 [Example 788, (R)-1-(7-(8-ethyl-7-fluoro-3-hydroxynaphthalen-1-yl)-8-fluoro-2-(((3R,7aS)-3-(((dimethylsulfamoyl)amino)methyl)tetrahydro-1H-pyrrolizin-7a(5H)-yl)methoxy)pyrido[4,3-d]pyrimidin-4-yl)-3-methylpiperidin-3-ol] | 45% | 41% | 38% | 47% | 33% | 75% |
| < 2 nM | < 2 nM | < 2 nM | 6 nM | 1750 nM | 32 nM | 116 nM |  |  |  |  | CCc1c(F)ccc2cc(O)cc(-c3ncc4c(N5CCC[C@@](C)(O)C5)nc(OC[C@@]56CCCN5[C@H](CNS(=O)(=O)N(C)C)CC6)nc4c3F)c12 [Example 789, (R)-1-(7-(8-ethyl-7-fluoro-3-hydroxynaphthalen-1-yl)-8-fluoro-2-(((3S,7aS)-3-(((dimethylsulfamoyl)amino)methyl)tetrahydro-1H-pyrrolizin-7a(5H)-yl)methoxy)pyrido[4,3-d]pyrimidin-4-yl)-3-methylpiperidin-3-ol] | 77% | 43% | 57% | 76% | 55% | 97% |
| 2 nM | 2 nM | < 2 nM | 2 nM | 744 nM | 4 nM | 32 nM | 9 nM | 4 nM | 13 nM | 8 nM | CCc1c(F)ccc2cc(O)cc(-c3ncc4c(N5CCC[C@@](C)(O)C5)nc(OCC56CCCN5CC(=C(F)F)C6)nc4c3F)c12 (stereo partly drawn) [Example 792, (3R)-1-(2-((2-(difluoromethylene)tetrahydro-1H-pyrrolizin-7a(5H)-yl)methoxy)-7-(8-ethyl-7-fluoro-3-hydroxynaphthalen-1-yl)-8-fluoropyrido[4,3-d]pyrimidin-4-yl)-3-methylpiperidin-3-ol] |  |  |  |  |  |  |
| 3 nM | 8 nM | 3 nM | 61 nM | > 10000 nM | 135 nM | 347 nM | 212 nM | 167 nM | 345 nM | 121 nM | CCc1c(F)ccc2cc(O)cc(-c3ncc4c(N5CCC[C@@](C)(O)C5)nc(OCC5(CN(C)C)C(C)C5C)nc4c3F)c12 (stereo partly drawn) [Example 818, (3R)-1-(2-((1-((dimethylamino)methyl)-2,3-dimethylcyclopropyl)methoxy)-7-(8-ethyl-7-fluoro-3-hydroxynaphthalen-1-yl)-8-fluoropyrido[4,3-d]pyrimidin-4-yl)-3-methylpiperidin-3-ol] |  |  |  |  |  |  |
